Results on two compounds are retold here after patent publication US20190337971A1, “PANTETHEINE DERIVATIVES FOR THE TREATMENT OF NEUROLOGIC DISORDERS” (Retrophin, Inc., priority 2016, published 2019).

Data set [1] is described as follows: Stability of compounds in mouse hepatocytes. It counts as in vitro ADME. The note with it: cryopreserved mouse hepatocytes in suspension, 37° C., 0-240 min. The method, then:
Stability in hepatocytes for select compounds disclosed in the application was evaluated in two species (mouse and human) according to the following procedure. Compounds and positive control samples were dissolved in 100% DMSO at 5 mM. Cryopreserved hepatocytes were thawed and resuspended in Hepatocyte Basal Medium (HBM-Lonza CC-3199) supplemented with CC-4182 (complete hepatocyte culture medium). Test compounds were diluted into cell suspension (1 million cells/ml) from the stock solutions to have a test compound concentration of 5 μM (0.1% DMSO). Incubation was performed in 24-well plates, at 37° C. in a DUBNOFF water bath, under low shaking. Each compound was tested at 6 time points, in duplicates (0, 15, 30, 60, 120, and 240 min). At each time point, an aliquot of 120 μl was taken and transferred to a 96-well deep plate. The reaction was stopped with the addition of one volume of 100% acetonitrile plus 0.1% formic acid and the appropriate internal standard. Samples then were centrifuged at 1100×g for 30 min at +4° C. and supernatants were transferred to a new 96-deepwell plate. Samples were evaporated under N2 and reconstituted in H2O/ACN 0.1% formic Acid (98:2). Analysis was performed without a calibration curve (Acquity UPLC-Waters; Sciex API4000). Time 0 was obtained adding acetonitrile before addition of the test compound. Stability was determined based on analysis of disappearance of the compounds as a function of incubation time. Quantification of test compounds was measured as a peak area relative to an internal standard. The elimination constant, k, is calculated by plotting mean disappearance values on a semi-logarithmic scale and fitting with a best fit linear regression. The half-life (t1/2) expressed in hours was derived using Equation 1:
t1/2=ln 2/(−k). Equation 1: […]

A further data set concerns PANK2−/− IMR32 cells. Kind of data set: Coenzyme A assay in PANK2 silenced cells (LC-MS quantification of free CoA). The class given is cell-based, human. Conditions: Homo sapiens, IMR-32; compound concentration 50 uM; fold increase in CoA levels relative to controls; treated twice, 24 h + 24 h.
Data set [2] in a line: Stability in human whole blood. It counts as in vitro ADME. The note with it: 37° C., up to 60 min. The method, then: The stability of selected compounds in human whole blood was evaluated according to the following protocol. Compounds and positive control samples were dissolved in 100% DMSO at 3 mM (stock solution). To investigate the stability of the test compounds in whole blood, a 200 μM working solution (WS) in water has been prepared by adding 66.66 μl of each 3 mM stock solution to 933.34 μl of water (6.66% DMSO content). After pre-incubation of the whole blood at 37° C. for 5 min in an eppendorf, 10.5 μl of each working solution were spiked into 689.5 μl of heated blood. The obtained 3 μM solution in blood (0.1% DMSO content) was quickly stirred and 100 μl for each time point were transferred to an eppendorf. Each compound was tested in duplicate at five time points (10, 20, 30, 40 and 60 min). At each time point, the reaction was stopped by quenching the spiked blood (100 μl) with 400 μl of 100% acetonitrile containing 0.1% formic acid. Then samples were centrifuged at 15600 rpm for 15 min at +4° C. and 200 μl of supernatant were transferred to a 96-deepwell plate. Samples were evaporated under N2 and reconstituted in H2O/ACN 0.1% formic Acid (98/2 v/v) containing the appropriate internal standard. Analysis was performed without a calibration curve by using an Acquity-UPLC (Waters) coupled to a triple quadrupole mass spectrometer (SciexAPI4000). Time point 0 was obtained by adding 3 μL of each 200 μM working solution to 997 μL of the supernatant obtaining after centrifugation (15600 rpm for 15 min at +4° C.) of the blank matrix quenched with acetonitrile containing 0.1% formic acid.
Stability was determined based on analysis of disappearance of the compounds as a function of incubation time. Quantification of test compounds was measured as a peak area relative to an internal standard. The elimination constant k and half-life (t1/2) were determined as described above in Example 7.

The mark [3] stands for this setting: Diastereoisomer A (upfield shift in 31P NMR), read-out: t1/2 (h) Mouse Hepatocytes Diastereoisomer A (converted).
The mark [4] stands for this setting: Diastereoisomer B, read-out: t1/2 (h) Mouse Hepatocytes Diastereoisomer B.
Setting [5] is: Diastereoisomer A (upfield shift in 31P NMR), read-out: t1/2 (h) Human Whole Blood Diastereoisomer A (converted).
Where [6] appears, read: Diastereoisomer B, read-out: t1/2 (h) Human Whole Blood Diastereoisomer B (converted).

SMILES strings stand for the structures. Where two headings read alike, the source gives them in different places.

Regarding `CC(=O)SCCNC(=O)CCNC(=O)[C@@H]1OP(=O)(OCOC(=O)c2scnc2C)OCC1(C)C` (stereo partly drawn) [R1006, (((4R)-4-((3-((2-(acetylthio)ethyl)amino)-3-oxopropyl)carbamoyl)-5,5-dimethyl-2-oxido-1,3,2-dioxaphosphinan-2-yl)oxy)methyl 4-methylthiazole-5-carboxylate], the half-life at 5 μM in data set [1] (setting [3]) is 0.31 h; in data set [1] (setting [4]), under 0.25 h. Besides, the fold induction at 50 µM in the data set with PANK2−/− IMR32 cells was determined as 117. For the same compound, the results for the half-life at 3 μM in data set [2] (setting [5]) and in data set [2] (setting [6]) were 0.37 h and under 0.16 h, respectively.
For `CC(=O)SCCNC(=O)CCNC(=O)[C@@H]1OP(=O)(OCOC(=O)c2cc(C)nn2C)OCC1(C)C` (stereo partly drawn) [R1007, (((4R)-4-((3-((2-(acetylthio)ethyl)amino)-3-oxopropyl)carbamoyl)-5,5-dimethyl-2-oxido-1,3,2-dioxaphosphinan-2-yl)oxy)methyl 1,3-dimethyl-1H-pyrazole-5-carboxylate], in that order: under 0.25 h, under 0.25 h, 109, 0.34 h and under 0.16 h.

By fold induction is commonly meant the ratio of treated to control signal.
